Results: patent US20230151025A1, “SUBSTITUTED THIAZOLOPYRIDINES, SALTS THEREOF AND THEIR USE AS HERBICIDALLY ACTIVE SUBSTANCES” (Bayer Aktiengesellschaft, priority 2020, published 2023)

Legend:
Assay type in all cases: in vivo
Stellaria media (STEME) [1] = assay: Herbicidal post-emergence action (B), 1280 g/ha
Text: (§1) ABUTH: Abutilon theophrasti AGSTE: Agrostis tenuis ALOMY: Alopecurus myosuroides AMARE Amaranthus retroflexus DIGSA: Digitaria sanguinalis ECHCG: Echinochloa crus-galli KCHSC: Kochia scoparia LOLRI: Lolium rigidum MATIN: Matricaria inodora POAAN: Poa annua POLCO: Polygonum convolvulus SETVI: Setaria viridis STEME: Stellaria media VERPE: Veronica persica VIOTR: Viola tricolor
(§2) Seeds of mono- and dicotyledonous weed plants were placed in plastic pots in sandy loam soil (doubly sown with in each case one species of mono- or dicotyledonous weed plants per pot), covered with soil and cultivated in a greenhouse under controlled growth conditions. 2 to 3 weeks after sowing, the test plants were treated at the one-leaf stage. The compounds of the invention, formulated in the form of wettable powders (WP) or as emulsion concentrates (EC), were applied onto the green parts of the plants as aqueous suspension or emulsion with addition of 0.5% additive at a water application rate of 600 liters per hectare (converted). After the test plants had been kept in the greenhouse under optimum growth conditions for about 3 weeks, the activity of the preparations was rated visually in comparison to untreated controls. For example, 100% activity=the plants have died, 0% activity=like control plants.
(§3) Tables B1 to B12, below, show the effects of selected compounds of the general formula (I) according to table 1 on various harmful plants and an application rate corresponding to 1280 g/ha obtained by the experimental procedure mentioned above.

Veronica persica (VERPE) [2] = assay: Herbicidal post-emergence action (B), 1280 g/ha
Text: as §1, §2, §3

[3] = system: Abutilon theophrasti (ABUTH); assay: Herbicidal post-emergence action (B), 1280 g/ha; settings: rated visually after about 3 weeks vs untreated controls
Text: as §1, §2, §3

[4] = system: Amaranthus retroflexus (AMARE); assay: Herbicidal post-emergence action (B), 1280 g/ha; settings: rated visually after about 3 weeks vs untreated controls
Text: as §1, §2, §3

[5] = system: Kochia scoparia (KCHSC; Bassia scoparia); assay: Herbicidal post-emergence action (B), 1280 g/ha
Text: as §1, §2, §3

Stellaria media (STEME) [6] = assay: Herbicidal pre-emergence action (A), 1280 g/ha; settings: visual grading after ca. 3 weeks vs untreated controls
Text: as §1
(§4) Seeds of mono- and dicotyledonous weed plants were sown in plastic pots (double sowings with one species of mono- and one species of dicotyledonous weed plants per pot), in sandy loam, and covered with soil. The compounds according to the invention, formulated in the form of wettable powders (WP) or as emulsifiable concentrates (EC), were applied to the surface of the covering soil as aqueous suspension or emulsion, with the addition of 0.5% of an additive, at an application rate of 600 l of water per hectare (converted). Following treatment, the pots were placed in a greenhouse and kept under optimum growth conditions for the test plants. The visual grading of the damage to the test plants was carried out after ca. 3 weeks in comparison to untreated controls (herbicidal effect in percent (%): 100% effect=plants have died off, 0% effect=as control plants).
(§5) Tables A1 to A12, below, show the effects of selected compounds of the general formula (I) according to table 1 on various harmful plants and an application rate corresponding to 1280 g/ha obtained by the experimental procedure mentioned above.

Setaria viridis (SETVI) = assay: Herbicidal pre-emergence action (A), 1280 g/ha; settings: visual grading after ca. 3 weeks vs untreated controls
Text: as §1, §4, §5

Veronica persica (VERPE) [7] = assay: Herbicidal pre-emergence action (A), 1280 g/ha; settings: visual grading after ca. 3 weeks vs untreated controls
Text: as §1, §4, §5

[8] = system: Kochia scoparia (KCHSC; Bassia scoparia); assay: Herbicidal pre-emergence action (A), 1280 g/ha; settings: visual grading after ca. 3 weeks vs untreated controls
Text: as §1, §4, §5

[9] = system: Matricaria inodora (MATIN); assay: Herbicidal pre-emergence action (A), 1280 g/ha; settings: visual grading after ca. 3 weeks vs untreated controls
Text: as §1, §4, §5

Poa annua (POAAN) [10] = assay: Herbicidal pre-emergence action (A), 1280 g/ha; settings: visual grading after ca. 3 weeks vs untreated controls, 100% = plants have died off, 0% = as control plants
Text: as §1, §4, §5

[11] = system: Digitaria sanguinalis (DIGSA); assay: Herbicidal pre-emergence action (A), 1280 g/ha; settings: visual grading after ca. 3 weeks vs untreated controls, 100% = plants have died off, 0% = as control plants
Text: as §1, §4, §5

[12] = system: Amaranthus retroflexus (AMARE); assay: Herbicidal pre-emergence action (A), 1280 g/ha; settings: visual grading after ca. 3 weeks vs untreated controls
Text: as §1, §4, §5

[13] = system: Echinochloa crus-galli (ECHCG); assay: Herbicidal pre-emergence action (A), 1280 g/ha; settings: visual grading after ca. 3 weeks vs untreated controls, 100% = plants have died off, 0% = as control plants
Text: as §1, §4, §5

[14] = system: Alopecurus myosuroides (ALOMY); assay: Herbicidal post-emergence action (B), 1280 g/ha; settings: rated visually after about 3 weeks vs untreated controls
Text: as §1, §2, §3

Lolium rigidum (LOLRI) = assay: Herbicidal pre-emergence action (A), 1280 g/ha; settings: visual grading after ca. 3 weeks vs untreated controls, 100% = plants have died off, 0% = as control plants
Text: as §1, §4, §5

[15] = system: Alopecurus myosuroides (ALOMY); assay: Herbicidal pre-emergence action (A), 1280 g/ha; settings: visual grading after ca. 3 weeks vs untreated controls, 100% = plants have died off, 0% = as control plants
Text: as §1, §4, §5

[16] = system: Echinochloa crus-galli (ECHCG); assay: Herbicidal post-emergence action (B), 1280 g/ha; settings: rated visually after about 3 weeks vs untreated controls
Text: as §1, §2, §3

Poa annua (POAAN) [17] = assay: Herbicidal post-emergence action (B), 1280 g/ha; settings: rated visually after about 3 weeks vs untreated controls
Text: as §1, §2, §3

Row | Structure (SMILES) | herbicidal effect STEME (Stellaria media (STEME) [1]) [%] | herbicidal effect VERPE (Veronica persica (VERPE) [2]) [%] | herbicidal activity ABUTH [3] [%] | herbicidal activity AMARE [4] [%] | herbicidal effect KCHSC [5] [%] | herbicidal effect STEME (Stellaria media (STEME) [6]) [%] | herbicidal effect SETVI (Setaria viridis (SETVI)) [%] | herbicidal effect VERPE (Veronica persica (VERPE) [7]) [%] | herbicidal effect KCHSC [8] [%] | herbicidal effect MATIN [9] [%] | POAAN, herbicidal effect in percent (%) (Poa annua (POAAN) [10]) | DIGSA, herbicidal effect in percent (%) [11] [%] | herbicidal effect AMARE [12] [%] | ECHCG, herbicidal effect in percent (%) [13] [%] | herbicidal activity ALOMY [14] [%] | LOLRI, herbicidal effect in percent (%) (Lolium rigidum (LOLRI)) | ALOMY, herbicidal effect in percent (%) [15] [%] | herbicidal activity ECHCG [16] [%] | herbicidal activity POAAN (Poa annua (POAAN) [17]) [%]
1 | Cc1c(Br)c(-c2ccccc2F)nc2ncsc12 [Example I-186] | 90 | 90 | 90 | 100 |  |  |  |  |  |  |  |  |  |  |  |  |  |  | 
2 | Cc1cc2sc([S+](C)[O-])nc2nc1-c1ccccc1F (centres unmarked) [Example I-104] |  | 100 |  | 90 | 100 | 90 | 100 | 90 | 100 | 90 | 100 | 100 | 90 |  |  |  |  |  | 
3 | CCc1cc2sc(S(C)(=O)=O)nc2nc1-c1ccccc1F [Example I-059] |  | 100 | 100 | 100 | 90 |  | 100 |  | 90 |  | 100 | 100 |  |  |  |  |  |  | 
4 | Cc1cc2sc(S)nc2nc1-c1ccccc1Cl [Example I-169] |  | 90 | 100 | 90 | 90 |  | 90 |  | 90 |  | 100 |  | 90 | 90 |  |  |  |  | 
5 | Fc1ccccc1-c1nc2nc(Cl)sc2cc1Br [Example I-053, 6-bromo-2-chloro-5-(2-fluorophenyl)thiazolo[4,5-b]pyridine] | 100 |  | 90 |  | 90 | 100 |  |  | 90 |  | 100 | 100 |  |  | 100 |  |  |  | 
6 | N#CCc1nc2nc(-c3ccccc3F)c(Br)cc2s1 [Example I-071] | 90 | 90 |  | 90 | 90 | 90 | 90 | 90 | 90 |  | 100 |  | 90 | 100 | 90 | 100 |  |  | 
7 | COC(=O)c1nc2nc(-c3ccccc3F)c(Br)cc2s1 [Example I-054, methyl 6-bromo-5-(2-fluorophenyl)thiazolo[4,5-b]pyridine-2-carboxylate] |  | 90 | 90 | 100 | 90 |  |  |  |  |  | 100 |  |  |  |  |  |  |  | 
8 | CCOC(=O)C(C#N)c1nc2nc(-c3ccccc3F)c(Br)cc2s1 (centres unmarked) [Example I-086] |  |  |  | 100 | 90 |  |  |  |  |  | 90 |  |  |  | 100 |  | 90 |  | 
9 | Cc1cc2scnc2nc1-c1sc(Br)cc1C [Example I-198] |  | 100 |  |  | 90 | 90 | 100 | 90 |  |  | 100 |  |  | 100 | 90 | 90 | 100 |  | 
10 | Cc1sccc1-c1ccc2scnc2n1 [Example I-133] |  |  | 90 | 90 |  | 90 | 100 | 90 | 90 |  | 90 |  | 90 | 100 |  | 100 | 100 | 90 | 100
11 | Cc1cc2sc(S)nc2nc1-c1ccccc1F [Example I-155] |  | 90 |  | 100 | 100 |  | 100 | 90 | 90 |  | 100 | 90 | 90 | 100 |  |  |  |  | 
12 | N#Cc1nc2nc(-c3ccccc3F)c(Br)cc2s1 [Example I-070, 6-bromo-5-(2-fluorophenyl)thiazolo[4,5-b]pyridine-2-carbonitrile] |  |  | 90 | 100 |  |  | 100 |  |  |  |  |  | 100 |  |  |  |  |  | 
13 | Cc1cscc1-c1nc2ncsc2cc1Br [Example I-141] |  | 90 |  | 90 | 90 | 90 | 100 | 90 |  | 90 | 100 |  | 90 | 100 |  |  | 100 | 90 | 
14 | Cc1cc(C)c(-c2nc3ncsc3cc2C)s1 [Example I-195] |  |  |  |  | 90 | 90 | 100 | 90 | 90 | 90 | 100 |  |  | 100 | 100 | 100 |  |  | 100
15 | Cc1ccccc1-c1nc2ncsc2cc1Cl [Example I-083] | 100 | 90 |  | 100 | 90 | 100 | 100 | 100 |  |  | 100 | 100 |  | 100 |  | 100 | 100 |  | 
16 | CCOc1nc2nc(-c3ccccc3C)c(CC)cc2s1 [Example I-055] |  |  |  |  |  | 90 | 100 |  | 100 |  | 100 |  |  | 100 |  | 90 |  | 90 | 100
17 | Cc1cc2scnc2nc1-c1cccnc1C [Example I-130] |  | 90 | 90 |  | 90 |  | 100 |  |  |  | 100 |  | 90 |  |  |  |  |  | 
